Read-outs that look alike come from different tables or passages of the source.
Assays:
[1] = system: Clostridium saccharobutylicum strain Co-7449; settings: for highest butanol concentration of plates showing growth: solid media P2+4% Xylose
Procedure: (§1) In some embodiments, solvent tolerant microorganisms are mutagenized and selected for increased solvent tolerance on solid support. In some embodiments, solvent tolerant mutants can be used for either solvent or organic acid production. […] In some embodiments of the present invention, solvent tolerance is a relative value that is measured by comparing the growth ability of a mutant microorganism on a semi-solid or solid support to the growth ability of the non-mutant parent microorganism on the same semi-solid or solid support. Typically, the semi-solid or solid support comprises a growth media and a specified concentration of a solvent that is usually measured on a volume to volume (v/v) basis. Generally, multiple containers, usually petri dishes, are filled with semi-solid or solid support representing a range of solvent concentration. […] The highest concentration at which colonies still form represents the solvent tolerance of the microorganism. An alternative solvent tolerance test method is to overlay the non-solvent support with a solution containing a specified concentration of a solvent.
(§2) On the first day, a seed train of a strain to be investigated was started in 5 ml cultures of P2+4% Xylose in the anaerobic hood. A 1-L volume of sterile P2 medium containing 4% Xylose and agar was prepared and place on hot plate. […] The solution was mixed well and plates were poured in a sterile environment. After the plates were solidified, they were transferred to the anaerobic hood and parafilmed immediately prior to storage overnight.
(§3) The next day, the OD600 of the seed train tubes was measured. […] Control tubes without inoculum were also prepared. Tubes were incubated in an anaerobic hood.
(§4) After 1 day and 3-4 days, the OD600 of liquid cultures was measured. Plates were examined for growth. […] OD600 at start (0 hr) was based on a 1:20 inoculation of the starter cultures.

[2] = system: mutants of C. saccharobutylicum strain Co-7449
Procedure: as §1
Clostridium saccharobutylicum strain Co-7449 was grown in yeast extract medium (YEM) to an approximate OD600 of 3 and was treated with a final concentration of 50 μg/ml N-methyl-N′-nitro-N-nitrosoguanidine (MNNG) for 15 minutes. Cells were twice washed with glucose-free YEM and plated on Reinforced Clostridium Medium (RCM) at 10^−3 and 10^−4 dilution to recover 3000-4000 colonies.

Co-0124 [3] = settings: solid media P2+4% Xylose
Procedure: as §2, §3, §4

Co-5673 [4] = settings: solid media P2+4% Xylose
Procedure: as §2, §3, §4

Co-0124 [5] = settings: liquid P2+4% Xylose, 24 and 96 hr time points
Procedure: as §3, §4

Co-5673 [6] = settings: liquid P2+4% Xylose, 24 and 96 hr time points
Procedure: as §3, §4

Co-7449 = settings: liquid P2+4% Xylose, 24 and 96 hr time points
Procedure: as §3, §4

[7] = system: environmental sample (isolate)
Procedure: An environmental sample (isolate) is obtained. The isolate is plated on a set of identical plates containing a nutrient agar.

[8] = system: mutants of C. saccharobutylicum strain Co-7449; settings: suspension culture, colonies from 5% butanol RCM plates

## butanol
[1]; 24 hr, separate experiment
  butanol tolerance result on solid media: 2.1%
[1]; 24 hour
  highest butanol concentration of plates showing growth: 0%
[1]; 96 hour
  highest butanol concentration of plates showing growth: 2.2%
[2]; mutants grown on a solid support
  tolerance for butanol compared to the parent Co-7449 strain: at least a two-fold higher tolerance
[2]; samples removed from liquid YEM, plated on 5% butanol plates
  growth on 5% butanol plates after culture in YEM without butanol: failed to grow
[2]; {}
  relative solvent tolerance of the mutants versus non-mutant parent strain: at least 225%
Co-0124 [3]; 24 hour
  highest butanol concentration of plates showing growth: 2.2%
Co-0124 [3]; 96 hour
  highest butanol concentration of plates showing growth: 2.3%
Co-5673 [4]; 24 hour
  highest butanol concentration of plates showing growth: 2.2%
Co-5673 [4]; 96 hour
  highest butanol concentration of plates showing growth: 2.2%
Co-0124 [5]
  highest butanol concentration at which OD600 increased: 1.6 % (v/v)
Co-5673 [6]
  highest butanol concentration at which OD600 increased: 1.4 % (v/v)
Co-7449
  highest butanol concentration at which OD600 increased: 1.4 % (v/v)
[7]; after 20 passages on solid support with increasing butanol
  butanol concentration the adapted strain grows in: 2.5%
[7]; unadapted isolate, no growth at 1.8% or 2.0%
  highest butanol concentration of plates with colonies: 1.6%
[8]
  growth in YEM with 1.2% butanol added to the broth: did not grow

— patent US8460906B2, “Immobilized product tolerant microorganisms” (Cobalt Technologies, Inc., priority 2008, dated 2013)
